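Where inhibition never reached the appropriate level, the endpoint shown equals the highest concentration tested. Otherwise, values were interpolated linearly from a five-concentration, 48-hour dose response in 96-well plates. GI50 is the concentration that inhibits growth by half. At the TGI there is no net growth.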
Tests used:
Test in all cases: growth of human tumour cells (NCI), 48 h
NCI-H522 lung = tested on: NCI-H522 lung
K-562 leukemia = tested on: K-562 leukemia
HOP-62 NSCLC = tested on: HOP-62 NSCLC
SF-295 CNS = tested on: SF-295 CNS
LOX IMVI melanoma = tested on: LOX IMVI melanoma
SNB-75 CNS = tested on: SNB-75 CNS
NCI-H460 lung = tested on: NCI-H460 lung
T-47D breast = tested on: T-47D breast
NCI-H226 lung = tested on: NCI-H226 lung
OVCAR-8 ovarian = tested on: OVCAR-8 ovarian
TK-10 renal = tested on: TK-10 renal
UACC-62 melanoma = tested on: UACC-62 melanoma
MDA-MB-231 breast = tested on: MDA-MB-231 breast
SF-539 CNS = tested on: SF-539 CNS
OVCAR-3 ovarian = tested on: OVCAR-3 ovarian
MOLT-4 leukemia = tested on: MOLT-4 leukemia
SK-MEL-2 melanoma = tested on: SK-MEL-2 melanoma
RPMI-8226 leukemia = tested on: RPMI-8226 leukemia
HT29 colon = tested on: HT29 colon
U251 CNS = tested on: U251 CNS
IGROV1 ovarian = tested on: IGROV1 ovarian
HS 578T breast = tested on: HS 578T breast
NCI/ADR-RES ovarian = tested on: NCI/ADR-RES ovarian
SNB-19 CNS = tested on: SNB-19 CNS
A498 renal = tested on: A498 renal
MCF7 breast = tested on: MCF7 breast
ACHN renal = tested on: ACHN renal
HL-60(TB) leukemia = tested on: HL-60(TB) leukemia
KM12 colon = tested on: KM12 colon
786-0 renal = tested on: 786-0 renal
CCRF-CEM leukemia = tested on: CCRF-CEM leukemia
SK-OV-3 ovarian = tested on: SK-OV-3 ovarian
BT-549 breast = tested on: BT-549 breast
HCC-2998 colon = tested on: HCC-2998 colon
UACC-257 melanoma = tested on: UACC-257 melanoma
SK-MEL-28 melanoma = tested on: SK-MEL-28 melanoma
SW-620 colon = tested on: SW-620 colon
EKVX NSCLC = tested on: EKVX NSCLC
RXF 393 renal = tested on: RXF 393 renal
NCI-H23 lung = tested on: NCI-H23 lung
DU-145 prostate = tested on: DU-145 prostate
SF-268 CNS = tested on: SF-268 CNS
OVCAR-4 ovarian = tested on: OVCAR-4 ovarian
HOP-92 NSCLC = tested on: HOP-92 NSCLC
PC-3 prostate = tested on: PC-3 prostate
SK-MEL-5 melanoma = tested on: SK-MEL-5 melanoma
OVCAR-5 ovarian = tested on: OVCAR-5 ovarian
MALME-3M melanoma = tested on: MALME-3M melanoma
UO-31 renal = tested on: UO-31 renal
CAKI-1 renal = tested on: CAKI-1 renal
HCT-15 colon = tested on: HCT-15 colon
SN12C renal = tested on: SN12C renal
HCT-116 colon = tested on: HCT-116 colon
A549 NSCLC = tested on: A549 NSCLC
MDA-MB-435 = tested on: MDA-MB-435
M14 melanoma = tested on: M14 melanoma
SR leukemia = tested on: SR leukemia
COLO 205 colon = tested on: COLO 205 colon

O=C(CSCC(=O)N/N=C/c1ccncc1)N/N=C/c1ccncc1
TGI (NCI-H522 lung): > 100 µM
TGI (K-562 leukemia): > 100 µM
TGI (HOP-62 NSCLC): > 100 µM
TGI (SF-295 CNS): > 100 µM
TGI (LOX IMVI melanoma): > 100 µM
TGI (SNB-75 CNS): > 100 µM
TGI (NCI-H460 lung): > 100 µM
TGI (T-47D breast): > 100 µM
TGI (NCI-H226 lung): > 100 µM
TGI (OVCAR-8 ovarian): > 100 µM
TGI (TK-10 renal): > 100 µM
TGI (UACC-62 melanoma): > 100 µM
TGI (MDA-MB-231 breast): > 100 µM
TGI (SF-539 CNS): > 100 µM
TGI (OVCAR-3 ovarian): > 100 µM
TGI (MOLT-4 leukemia): > 100 µM
TGI (SK-MEL-2 melanoma): > 100 µM
TGI (RPMI-8226 leukemia): > 100 µM
TGI (HT29 colon): > 100 µM
TGI (U251 CNS): > 100 µM
TGI (IGROV1 ovarian): > 100 µM
TGI (HS 578T breast): > 100 µM
TGI (NCI/ADR-RES ovarian): > 100 µM
TGI (SNB-19 CNS): > 100 µM
TGI (A498 renal): > 100 µM
TGI (MCF7 breast): > 100 µM
TGI (ACHN renal): > 100 µM
TGI (HL-60(TB) leukemia): > 100 µM
TGI (KM12 colon): > 100 µM
TGI (786-0 renal): > 100 µM
TGI (CCRF-CEM leukemia): > 100 µM
TGI (SK-OV-3 ovarian): > 100 µM
TGI (BT-549 breast): > 100 µM
TGI (HCC-2998 colon): > 100 µM
TGI (UACC-257 melanoma): > 100 µM
TGI (SK-MEL-28 melanoma): > 100 µM
TGI (SW-620 colon): > 100 µM
TGI (EKVX NSCLC): > 100 µM
TGI (RXF 393 renal): > 100 µM
TGI (NCI-H23 lung): > 100 µM
TGI (DU-145 prostate): > 100 µM
TGI (SF-268 CNS): > 100 µM
TGI (OVCAR-4 ovarian): > 100 µM
TGI (HOP-92 NSCLC): > 100 µM
TGI (PC-3 prostate): > 100 µM
TGI (SK-MEL-5 melanoma): > 100 µM
TGI (OVCAR-5 ovarian): > 100 µM
TGI (MALME-3M melanoma): > 100 µM
TGI (UO-31 renal): > 100 µM
TGI (CAKI-1 renal): > 100 µM
TGI (HCT-15 colon): > 100 µM
TGI (SN12C renal): > 100 µM
TGI (HCT-116 colon): > 100 µM
TGI (A549 NSCLC): > 100 µM
TGI (MDA-MB-435): > 100 µM
TGI (M14 melanoma): > 100 µM

O=C(Nc1ccc(N2CCNCC2)cn1)c1[nH]ncc1Nc1ncnc2sc3c(c12)CCC3
GI50 (NCI-H522 lung): 1.92 µM
TGI (NCI-H522 lung): 4.82 µM
GI50 (K-562 leukemia): 0.207 µM
TGI (K-562 leukemia): 0.498 µM
GI50 (HOP-62 NSCLC): 1.83 µM
TGI (HOP-62 NSCLC): 4.81 µM
GI50 (SF-295 CNS): 4.31 µM
TGI (SF-295 CNS): 23.9 µM
GI50 (SNB-75 CNS): 1.6 µM
TGI (SNB-75 CNS): 4.04 µM
GI50 (NCI-H460 lung): 1.58 µM
TGI (NCI-H460 lung): 3.48 µM
GI50 (T-47D breast): 1.65 µM
TGI (T-47D breast): 4.27 µM
GI50 (SR leukemia): 0.246 µM
TGI (SR leukemia): 0.872 µM
GI50 (NCI-H226 lung): 20 µM
TGI (NCI-H226 lung): 67.2 µM
GI50 (OVCAR-8 ovarian): 2.17 µM
TGI (OVCAR-8 ovarian): 5 µM
GI50 (TK-10 renal): 1.77 µM
TGI (TK-10 renal): 3.36 µM
GI50 (UACC-62 melanoma): 1.98 µM
TGI (UACC-62 melanoma): 4.2 µM
GI50 (MDA-MB-231 breast): 1.69 µM
TGI (MDA-MB-231 breast): 3.28 µM
GI50 (OVCAR-3 ovarian): 1.84 µM
TGI (OVCAR-3 ovarian): 3.62 µM
GI50 (MOLT-4 leukemia): 2.54 µM
TGI (MOLT-4 leukemia): 19.8 µM
GI50 (SK-MEL-2 melanoma): 13.6 µM
TGI (SK-MEL-2 melanoma): 35.1 µM
GI50 (RPMI-8226 leukemia): 1.94 µM
TGI (RPMI-8226 leukemia): 5.82 µM
GI50 (HS 578T breast): 3.38 µM
TGI (HS 578T breast): 14.6 µM
GI50 (NCI/ADR-RES ovarian): 4.75 µM
TGI (NCI/ADR-RES ovarian): > 100 µM
GI50 (A498 renal): 5.06 µM
TGI (A498 renal): 24.6 µM
GI50 (MCF7 breast): 1.68 µM
TGI (MCF7 breast): 4.2 µM
GI50 (HL-60(TB) leukemia): 6.28 µM
TGI (HL-60(TB) leukemia): 29.8 µM
GI50 (KM12 colon): 2.38 µM
TGI (KM12 colon): 6.12 µM
GI50 (786-0 renal): 1.41 µM
TGI (786-0 renal): 2.98 µM
GI50 (SK-OV-3 ovarian): 16.3 µM
TGI (SK-OV-3 ovarian): 34.8 µM
GI50 (BT-549 breast): 14.1 µM
TGI (BT-549 breast): 38.6 µM
GI50 (HCC-2998 colon): 14.1 µM
TGI (HCC-2998 colon): 36.2 µM
GI50 (UACC-257 melanoma): 16.6 µM
TGI (UACC-257 melanoma): 41.2 µM
GI50 (SW-620 colon): 0.476 µM
TGI (SW-620 colon): 2.05 µM
GI50 (COLO 205 colon): 2.11 µM
TGI (COLO 205 colon): 6.97 µM
GI50 (EKVX NSCLC): 1.99 µM
TGI (EKVX NSCLC): 5.77 µM
GI50 (NCI-H23 lung): 2.21 µM
TGI (NCI-H23 lung): 6.32 µM
GI50 (DU-145 prostate): 1.6 µM
TGI (DU-145 prostate): 3.06 µM
GI50 (HOP-92 NSCLC): 4.69 µM
TGI (HOP-92 NSCLC): > 100 µM
GI50 (UO-31 renal): 1.58 µM
TGI (UO-31 renal): 3.71 µM
GI50 (CAKI-1 renal): 1.4 µM
TGI (CAKI-1 renal): 3.26 µM
GI50 (SN12C renal): 2 µM
TGI (SN12C renal): 4.59 µM
GI50 (HCT-116 colon): 0.542 µM
TGI (HCT-116 colon): 2.18 µM
GI50 (A549 NSCLC): 1.67 µM
TGI (A549 NSCLC): 3.5 µM
GI50 (MDA-MB-435): 1.13 µM
TGI (MDA-MB-435): 2.67 µM
GI50 (M14 melanoma): 1.49 µM
TGI (M14 melanoma): 3.22 µM
